{"source": "ChEMBL document CHEMBL1255239", "about": "“Increases in SLT2 expression and chitin content are associated with incomplete killing of Candida glabrata by caspofungin” (2008)", "key": {"[1]": {"test_system": "Nakaseomyces glabratus", "test": "Antifungal activity against Candida glabrata 200989 assessed as log reduction in bacterial count at 0.125 to 16 ug/ml by time-kill analysis", "type": "functional"}, "[2]": {"test_system": "Nakaseomyces glabratus", "test": "Antifungal activity against slt2 deficient Candida glabrata 200989 assessed as log reduction in bacterial count at 0.125 ug/ml by time-kill analysis", "type": "functional"}, "[3]": {"test_system": "Nakaseomyces glabratus", "test": "Antifungal activity against slt2 deficient Candida glabrata 200989 assessed as log reduction in bacterial count at 1 ug/ml by time-kill analysis", "type": "functional"}, "[4]": {"test_system": "Nakaseomyces glabratus", "test": "Antifungal activity against slt2 deficient Candida glabrata 200989 assessed as log reduction in bacterial count at 16 ug/ml by time-kill analysis", "type": "functional"}, "[5]": {"test_system": "Nakaseomyces glabratus", "test": "Increase in slt2 gene expression in Candida glabrata 200989 at 0.125 to 16 ug/ml after 10 mins by RT-PCR analysis relative to control", "type": "functional"}, "[6]": {"test_system": "Nakaseomyces glabratus", "test": "Increase in slt2 gene expression in Candida glabrata 200989 at 0.125 to 16 ug/ml after 180 mins by RT-PCR analysis relative to control", "type": "functional"}, "[7]": {"test_system": "Nakaseomyces glabratus", "test": "Increase in slt2 gene expression in Candida glabrata 200989 at 0.125 to 16 ug/ml after 12 hrs by RT-PCR analysis", "type": "functional, organism-based"}, "[8]": {"test_system": "Nakaseomyces glabratus", "test": "Increase in chitin content in Candida glabrata 200989 at 0.125 to 16 ug/ml after 12 hrs relative to control", "type": "functional"}, "[9]": {"test_system": "Nakaseomyces glabratus", "test": "Increase in chitin content in slt2 deficient Candida glabrata 200989 at 0.125 to 16 ug/ml after 12 hrs", "type": "functional, organism-based"}, "[10]": {"test_system": "Nakaseomyces glabratus", "test": "Increase in CHS3 gene expression in slt2 deficient Candida glabrata 200989 at 0.125 to 16 ug/ml after 180 mins by RT-PCR analysis", "type": "functional, organism-based"}, "[11]": {"test_system": "Nakaseomyces glabratus", "test": "Antifungal activity against Candida glabrata 200989 at 0 to 32 ug/ml by XTT […] assay", "type": "functional, organism-based"}, "[12]": {"test_system": "Nakaseomyces glabratus", "test": "Antifungal activity against Candida glabrata 200989 at 0.125 to 16 ug/ml by time-kill analysis", "type": "functional, organism-based"}, "[13]": {"test_system": "Nakaseomyces glabratus", "test": "Increase in CHS3 gene expression in Candida glabrata 200989 at 0.125 to 16 ug/ml after 180 mins by RT-PCR analysis relative to control", "type": "functional"}}, "note": "Active and inactive are the calls of the source. The rule behind the calls is not given here.", "data": [{"smiles": "CC[C@H](C)C[C@H](C)CCCCCCCCC(=O)N[C@H]1C[C@@H](O)[C@@H](NCCN)NC(=O)[C@@H]2[C@@H](O)CCN2C(=O)[C@H]([C@H](O)CCN)NC(=O)[C@H]([C@H](O)[C@@H](O)c2ccc(O)cc2)NC(=O)[C@@H]2C[C@@H](O)CN2C(=O)[C@H]([C@@H](C)O)NC1=O", "note": "[CASPOFUNGIN]", "values": [{"measurement": "log10cfu", "setting": "[1]", "value": "1.6 /ml"}, {"measurement": "log10cfu", "setting": "[2]", "value": "2.6 /ml"}, {"measurement": "log10cfu", "setting": "[3]", "value": "4.2 /ml"}, {"measurement": "log10cfu", "setting": "[4]", "value": "4.2 /ml"}, {"measurement": "fold change (FC)", "setting": "[5]", "value": ">2"}, {"measurement": "fold change (FC)", "setting": "[6]", "value": ">=3.8"}, {"measurement": "Activity", "setting": "[7]", "value": "inactive"}, {"measurement": "fold change (FC)", "setting": "[8]", "value": ">3.5"}, {"measurement": "Activity", "setting": "[9]", "value": "inactive"}, {"measurement": "Activity", "setting": "[10]", "value": "inactive"}, {"measurement": "Activity", "setting": "[11]", "value": "inactive"}, {"measurement": "Activity", "setting": "[12]", "value": "inactive"}, {"measurement": "fold change (FC)", "setting": "[13]", "value": ">2"}]}]}
